Test results published in ChEMBL document CHEMBL4257456, “Molecular modeling study, synthesis and biological evaluation of combretastatin A-4 analogues as anticancer agents and tubulin inhibitors” (Medchemcomm, 2018).

test system: A549; assay: Antiproliferative activity against human A549 cells after 72 hrs by CCK-8 assay; type: functional, cell-based; details: A549, 72 h

| Compound | IC50 [µM] |
| --- | --- |
| COc1ccc(-c2oc3cc(OC)c(F)cc3c2C(=O)c2cc(OC)c(OC)c(OC)c2)cc1 | 6.87 |
| CCOc1ccc(-c2oc3cc(OC)ccc3c2C(=O)c2cc(OC)c(OC)c(OC)c2)cc1 | 1.37 |
| COc1ccc(/C=C\c2cc(OC)c(OC)c(OC)c2)cc1O [COMBRETASTATIN A4] | 5.99 |
| COc1ccc(/C=C\c2cc(OC)c(OC)c(OC)c2)cc1OP(=O)(O)O [FOSBRETABULIN DISODIUM] | 0.4 |

test system: MCF7; assay: Antiproliferative activity against human MCF7 cells after 72 hrs by CCK-8 assay; type: functional, cell-based; details: MCF7, 72 h

| Compound | IC50 [nM] |
| --- | --- |
| COc1ccc(-c2oc3cc(OC)c(F)cc3c2C(=O)c2cc(OC)c(OC)c(OC)c2)cc1 | 6490 |
| CCOc1ccc(-c2oc3cc(OC)ccc3c2C(=O)c2cc(OC)c(OC)c(OC)c2)cc1 | 910 |
| COc1ccc(/C=C\c2cc(OC)c(OC)c(OC)c2)cc1O [COMBRETASTATIN A4] | 670 |
| COc1ccc(/C=C\c2cc(OC)c(OC)c(OC)c2)cc1OP(=O)(O)O [FOSBRETABULIN DISODIUM] | 960 |

test system: HeLa; assay: Antiproliferative activity against human HeLa cells after 72 hrs by CCK-8 assay; type: functional, cell-based; details: not given

| Compound | IC50 [µM] |
| --- | --- |
| COc1ccc(-c2oc3cc(OC)c(F)cc3c2C(=O)c2cc(OC)c(OC)c(OC)c2)cc1 | 19.1 |
| CCOc1ccc(-c2oc3cc(OC)ccc3c2C(=O)c2cc(OC)c(OC)c(OC)c2)cc1 | 8.99 |
| COc1ccc(/C=C\c2cc(OC)c(OC)c(OC)c2)cc1O [COMBRETASTATIN A4] | 11.3 |
| COc1ccc(/C=C\c2cc(OC)c(OC)c(OC)c2)cc1OP(=O)(O)O [FOSBRETABULIN DISODIUM] | 0.56 |

test system: MGC-803; assay: Antiproliferative activity against human MGC803 cells after 72 hrs by CCK-8 assay; type: functional, cell-based; details: MGC-803, 72 h

| Compound | IC50 [µM] |
| --- | --- |
| COc1ccc(-c2oc3cc(OC)c(F)cc3c2C(=O)c2cc(OC)c(OC)c(OC)c2)cc1 | 47.3 |
| CCOc1ccc(-c2oc3cc(OC)ccc3c2C(=O)c2cc(OC)c(OC)c(OC)c2)cc1 | 9.97 |
| COc1ccc(/C=C\c2cc(OC)c(OC)c(OC)c2)cc1O [COMBRETASTATIN A4] | 1.76 |
| COc1ccc(/C=C\c2cc(OC)c(OC)c(OC)c2)cc1OP(=O)(O)O [FOSBRETABULIN DISODIUM] | 0.47 |

test system: HCT-116; assay: Antiproliferative activity against human HCT116 cells after 72 hrs by CCK-8 assay; type: functional, cell-based; details: HCT-116, 72 h

| Compound | IC50 [µM] |
| --- | --- |
| COc1ccc(-c2oc3cc(OC)c(F)cc3c2C(=O)c2cc(OC)c(OC)c(OC)c2)cc1 | 78.2 |
| CCOc1ccc(-c2oc3cc(OC)ccc3c2C(=O)c2cc(OC)c(OC)c(OC)c2)cc1 | 12.6 |
| COc1ccc(/C=C\c2cc(OC)c(OC)c(OC)c2)cc1O [COMBRETASTATIN A4] | 9 |
| COc1ccc(/C=C\c2cc(OC)c(OC)c(OC)c2)cc1OP(=O)(O)O [FOSBRETABULIN DISODIUM] | 0.24 |

test system: HepG2; assay: Antiproliferative activity against human HepG2 cells after 72 hrs by CCK-8 assay; type: functional, cell-based; details: HepG2, 72 h

| Compound | IC50 [µM] |
| --- | --- |
| COc1ccc(-c2oc3cc(OC)c(F)cc3c2C(=O)c2cc(OC)c(OC)c(OC)c2)cc1 | 4.75 |
| CCOc1ccc(-c2oc3cc(OC)ccc3c2C(=O)c2cc(OC)c(OC)c(OC)c2)cc1 | 1.31 |
| COc1ccc(/C=C\c2cc(OC)c(OC)c(OC)c2)cc1O [COMBRETASTATIN A4] | 16 |
| COc1ccc(/C=C\c2cc(OC)c(OC)c(OC)c2)cc1OP(=O)(O)O [FOSBRETABULIN DISODIUM] | 0.27 |

test system: not listed separately; assay: Inhibition of pig brain tubulin polymerization by spectrophotometric analysis; set-up: species or system Sus scrofa; details: not given

| IC50 [nM] | Compound |
| --- | --- |
| > 200000 | COc1ccc(-c2oc3cc(OC)c(F)cc3c2C(=O)c2cc(OC)c(OC)c(OC)c2)cc1 |
| > 200000 | CCOc1ccc(-c2[nH]c3cc(OC)ccc3c2C(=O)c2cc(OC)c(OC)c(OC)c2)cc1 |
| 860 | CCOc1ccc(-c2oc3cc(OC)ccc3c2C(=O)c2cc(OC)c(OC)c(OC)c2)cc1 |

| Compound | IC50 [nM] |
| --- | --- |
| COc1ccc(/C=C\c2cc(OC)c(OC)c(OC)c2)cc1O [COMBRETASTATIN A4] | 880 |
| COc1ccc(/C=C\c2cc(OC)c(OC)c(OC)c2)cc1OP(=O)(O)O [FOSBRETABULIN DISODIUM] | 4790 |
